Values quoted from earlier work as cited in paper PMC11064828 (Journal of Nuclear Medicine, 2024).

Tests used:
[1] = tested on: CAIX; details: 2 clinical trials of metastatic ccRCC
Description: (§1) As a direct transcriptional target of hypoxia-inducible factor 1α, CAIX is overexpressed in several hard-to-treat tumors, including ccRCC, CRC, breast cancer, and PDAC ([2],[9]–[11]), making it a promising therapeutic target. However, to date, the transition of CAIX-targeting therapies to clinical settings has been poor ([7],[13]).

[2] = tested on: CAIX; details: phase 1 study of advanced solid tumors
Description: as §1, with “([7],[13]). Several small-molecule inhibitors of CAs, including CAIX, have been developed ([7],[13]).” for “([7],[13]).”

Compound | dose-limiting toxicity [1] | objective responses [2] | tolerability [2]
G250 to the β-emitter [^177Lu]Lu: anti-CAIX monoclonal antibody G250 conjugated to the β-emitter [^177Lu]Lu | dose-limiting myelotoxicity |  | 
NS(=O)(=O)c1ccc(NC(=O)Nc2ccc(F)cc2)cc1 [SLC-0111] |  | no objective responses | well tolerated
